# Reference: patent USRE39707E1, “Camptothecin derivatives” (Catholic Healthcare West, priority 2001, dated 2007)
# Legend:
# [1] = tested on: HCT116; assay: Cell colony formation assay, HCT116 cells; format: cell-based, human; settings: 72 hours drug exposure
# Method: (§1) This example provides directions for growing cells and testing compounds of the invention for their effect on the growth of the cells. All cells were purchased from DCIDC Tumor Repository, NCI, NIH.
# The cells were incubated in a CO2 incubator at 37° C. for 5 hours for attachment to the bottom of Petri dishes. Drugs were made fresh in medium at ten times the final concentration, and then 0.3 ml of this stock solution was added to the 2.7 ml of medium in the dish. The cells were then incubated with drugs for 72 hours at 37° C. At the end of the incubation the drug-containing media were decanted, the dishes were rinsed with 4 ml of Hank's Balance Salt Solution (HBSS), 5 ml of fresh medium was added, and the dishes were returned to the incubator for colony formation. The cell colonies were counted using colony counter after incubation for 7 days for HCT116 cells and PC-3 cells and 8 days for VM46 cells, respectively.
# [2] = tested on: VM46; assay: Cell colony formation assay, VM46 cells; format: cell-based; settings: 72 hours drug exposure
# Method: as §1
# (§2) Four hundred cells (HCT 116, PC-3, NCI/ADR-RES: human breast cancer cells) or five hundred cells (VM46) were plated in 60 mm Petri dishes containing 2.7 ml of medium (modified McCoy's 5a medium) containing 10% fetal bovine serum and 100 units/ml penicillin and […] streptomycin. The cells were incubated in a CO2 incubator at 37° C. for 5 hours for attachment to the bottom of Petri dishes. Drugs were made fresh in medium at ten times the final concentration, and then 0.3 ml of this stock solution was added to the 2.7 ml of medium in the dish. The cells were then incubated with drugs for 72 hours at 37° C. At the end of the incubation the drug-containing media were decanted, the dishes were rinsed with 4 ml of Hank's Balance Salt Solution (HBSS), 5 ml of fresh medium was added, and the dishes were returned to the incubator for colony formation. The cell colonies were counted using colony counter after incubation for 7 days for HCT116 cells and PC-3 cells and 8 days for VM46 cells, respectively.
# (§3) Values of ID50 (the drug concentration producing 50% inhibition of colony formation) may be determined for each tested compound. The directions described in this example may be used in other cells, such as DU-145.
# [3] = tested on: C3H/HeJ mice; settings: maximum tolerated dose at day 40, C3H/HeJ mice
# Method: This example provides directions for performing in vivo toxicity tests of the compounds of the invention on C3H/HeJ mice.
# Acute toxicities of the compounds of this invention are evaluated on C3H/HeJ mice (body weight 18-22 g). The MTD40 (maximum tolerated dose at day 40) values were determined by the standard procedure described by Gad and Chengelis (see, for example, “Acute Toxicology Testing,” 2nd Ed., Shayne O. Gad and Christopher P. Chengelis, pp. 186-195 (Academic Press)). In the consecutive type studies, 2 mice were dosed at low and moderate doses of 40 and 100 mg/kg. If no severe and irreversible toxicity (euthanasia is required) occurs at these doses, a new pair of animals was initiated at 180 mg/kg, which is 1.8 times higher than 100 mg/kg. Sequential dosages (about 3 doses on 3 pairs of animals, i.e. 2 mice for each drug dose) were increased by a factor of 1.8 until severe and irreversible toxicity (euthanasia is required) occurred. Then another pair of animals was initiated at the highest nonlethal dosage, and successive dosages were increased by a factor of 1.15. The result of this exercise was two dosages, one apparently nonlethal and the other lethal if severe and irreversible toxicity occurs and euthanasia is required, separated by a factor of 1.15. Six mice were dosed at each dosage. If no severe and irreversible toxicity occurred at the lower dosage and at least one with severe and irreversible toxicity occurred at the higher dose, then the lower dose was considered to be the MTD. The compounds of this invention were administered to C3H/HeJ mice by intraperitoneal injection. Drug toxicity was evaluated on mice checked daily for 45 days.
# [4] = tested on: PC-3; assay: Cell colony formation assay, PC-3 cells; format: cell-based, human; settings: 72 hours drug exposure
# Method: as §1, §2, §3
# [5] = tested on: MTG-B mouse mammary Adenocarcinoma; assay: In vivo efficacy in C3H/HeJ mice bearing MTG-B tumors; settings: for T (Surviving days after treatment of MTG-B mouse mammary Adenocarcinoma In C3H/Hej mice): i.p., control mice survived 6 days; for CD/Taxol: ratio of extra days of survival with compound to extra days of survival with taxol, each compared to control; for T/C %: surviving days treated / surviving days control x 100%, control 6 days
# Method: This example provides directions for performing in vivo efficacy tests of the compounds of the invention on C3H/HeJ mice bearing MTG-B tumors.
# Studies on the compounds of this invention were performed on C3H/HeJ mice bearing […] tumors. […] Treatment was initiated at that time, with the first day of treatment designated as day 0 for calculation and plots. The mice were injected i.p. with thee drug dose levels (⅓, ½, 1×MTD) using both a single injection and the schedule of Q2D×3 (every 2 days for a total of 3 treatments at ⅓ MTD). Control groups of mice bearing 8 mm diameter tumors were treated with vehicle alone. […] When a tumor reached 1.5 g, the mouse bearing the tumor was euthanized. Surviving days measured from day 0 for mice treated with anticancer drugs (T) and surviving days measured from day 0 for control mice (C) were recorded. Tumor growth inhibition values (T/C %) were calculated using the formula T/C %=(surviving days of mice treated with an anticancer drug T/surviving days of control mice C)×100%, as shown in Table II.
# The final right-hand column in Table II provides a ratio of the extra days of survival of mice treated with the compounds of the invention (compared to control) to the extra days of survival of mice treated with taxol (compared to control).
SMILES,In Vitro Efficacy: Survival (%) of HCT116 ([1]; 1 nM) [%],In Vitro Efficacy: Survival (%) of HCT116 ([1]; 10 nM) [%],In Vitro Efficacy: Survival (%) of HCT116 ([1]; 100 nM) [%],In vitro efficacy: Survival (%) of cells line VM46 ([2]; 1 nM) [%],In vitro efficacy: Survival (%) of cells line VM46 ([2]; 10 nM) [%],"In Vivo Toxicity MTD40 (ip, mg/kg) in C3H/Hej Mice [3] [mg/kg]",In vitro efficacy: Survival (%) of cells line PC-3 ([4]; 1 nM) [%],In vitro efficacy: Survival (%) of cells line PC-3 ([4]; 5 nM) [%],T (Surviving days after treatment of MTG-B mouse mammary Adenocarcinoma In C3H/Hej mice) [5] [days],CD/Taxol [5],T/C % [5] [%]
"CCC1(OC(=O)COc2ccc(Cl)cc2C)C(=O)OCc2c1cc1n(c2=O)Cc2cc3ccccc3nc2-1 (stereo not drawn) [Example 000127, Camptothecin-20-O-ester of 4-chloro-2-methylphenoxyacetic acid]",86.48,0,0,47.33,0,>150,88.97,31.46,13,2.3,217
CCC1(OC(=O)COc2ccc3c(C)c(Cl)c(=O)oc3c2)C(=O)OCc2c1cc1n(c2=O)Cc2cc3ccccc3nc2-1 (stereo not drawn) [Example 000129],74.73,0,0,28.15,0,75,88.04,10.31,12,2.0,200
"CCC1(OC(=O)COc2ccc3ccccc3c2)C(=O)OCc2c1cc1n(c2=O)Cc2cc3ccccc3nc2-1 (stereo not drawn) [Example 000224, Camptothecin-20-O-ester of 2-napthoxyacetic acid]",100,0,0,62.69,0,>150,87.34,37.98,7,.3,117
"CCC1(OC(=O)COc2ccc(C=O)cc2)C(=O)OCc2c1cc1n(c2=O)Cc2cc3ccccc3nc2-1 (stereo not drawn) [Example 000313, Camptothecin-20-O-ester of 4-formylphenoxyacetic acid]",100,0,0,41.58,0,>150,89.51,21.16,9,1.0,150
"CC[C@@]1(OC(=O)COc2ccc(Br)cc2)C(=O)OCc2c1cc1n(c2=O)Cc2cc3ccccc3nc2-1 [Example 000315, Camptothecin-20-Oester of 4-bromophenoxyacetic acid]",100,0,0,64.37,0,>150,87.38,22.24,18,4,300
"CCC1(OC(=O)COc2c(F)c(F)c(F)c(F)c2F)C(=O)OCc2c1cc1n(c2=O)Cc2cc3ccccc3nc2-1 (stereo not drawn) [Example 000410, Camptothecin-20-O-ester of 2,3,4,5,6-pentafluorophenoxyacetic acid]",88.96,0,0,68.75,0,45,93.31,23.33,12,2.0,200
"CCC1(OC(=O)COc2ccccc2[N+](=O)[O-])C(=O)OCc2c1cc1n(c2=O)Cc2cc3ccccc3nc2-1 (stereo not drawn) [Example 000411, Camptothecin-20-O-ester of 2-nitrophenoxyacetic acid]",95.13,0,0,76.87,0,>150,90.09,33.09,8,.7,133
"CCC1(OC(=O)COc2cccc(Cl)c2Cl)C(=O)OCc2c1cc1n(c2=O)Cc2cc3ccccc3nc2-1 (stereo not drawn) [Example 000412, Camptothecin-20-O-ester of 2,3-dichlorophenoxyacetic acid]",81.36,0,0,50.72,0,100,83.00,8.68,17,3.7,283
"CCC1(OC(=O)COc2ccc(I)cc2)C(=O)OCc2c1cc1n(c2=O)Cc2cc3ccccc3nc2-1 (stereo not drawn) [Example 000413, Camptothecin-20-Oester of 4-iodophenoxyacetic acid]",87.62,0,0,73.61,0,>150,89.51,33.64,18,4,300
